Article PMC3653958, “Identification of Functionally Distinct Na-HCO3 Co-Transporters in Colon” (PLoS ONE, 2013)

Target: T1, NBCe1B/C (electrogenic Na-HCO3 cotransporter) (Rattus norvegicus, UniProt Q9JI66)
T1 construct: gene Slc4a4; native transporter in basolateral membrane vesicles of rat proximal colon (amiloride-insensitive component)
T1 sequence (Q9JI66 1-1079): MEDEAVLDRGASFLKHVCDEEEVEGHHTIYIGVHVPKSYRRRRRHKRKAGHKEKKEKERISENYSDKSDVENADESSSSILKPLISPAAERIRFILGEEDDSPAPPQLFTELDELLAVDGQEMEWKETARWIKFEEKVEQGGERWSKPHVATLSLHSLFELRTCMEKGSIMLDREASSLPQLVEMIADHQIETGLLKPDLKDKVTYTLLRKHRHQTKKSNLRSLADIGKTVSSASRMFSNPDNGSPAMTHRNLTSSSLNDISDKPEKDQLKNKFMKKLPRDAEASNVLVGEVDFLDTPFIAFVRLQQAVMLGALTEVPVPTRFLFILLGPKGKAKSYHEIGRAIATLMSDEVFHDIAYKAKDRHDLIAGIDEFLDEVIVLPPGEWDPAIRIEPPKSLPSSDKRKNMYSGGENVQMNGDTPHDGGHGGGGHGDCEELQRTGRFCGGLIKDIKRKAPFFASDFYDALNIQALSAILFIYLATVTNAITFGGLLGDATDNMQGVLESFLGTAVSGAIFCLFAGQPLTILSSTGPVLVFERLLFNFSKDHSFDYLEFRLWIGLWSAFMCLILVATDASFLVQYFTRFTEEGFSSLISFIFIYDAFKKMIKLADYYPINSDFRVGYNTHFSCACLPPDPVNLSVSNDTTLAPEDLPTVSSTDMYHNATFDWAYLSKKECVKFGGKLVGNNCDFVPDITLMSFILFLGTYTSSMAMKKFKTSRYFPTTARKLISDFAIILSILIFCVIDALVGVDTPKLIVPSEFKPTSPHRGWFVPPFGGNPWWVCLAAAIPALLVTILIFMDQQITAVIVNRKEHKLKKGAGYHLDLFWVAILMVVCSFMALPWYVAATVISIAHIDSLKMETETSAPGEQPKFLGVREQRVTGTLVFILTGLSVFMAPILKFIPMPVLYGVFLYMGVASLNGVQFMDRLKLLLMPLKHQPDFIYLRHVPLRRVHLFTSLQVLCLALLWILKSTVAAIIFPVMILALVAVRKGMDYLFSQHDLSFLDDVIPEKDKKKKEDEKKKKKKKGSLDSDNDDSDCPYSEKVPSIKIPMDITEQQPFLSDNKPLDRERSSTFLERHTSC
Assay: inhibition of proton/HCO3 gradient-driven […] uptake in native membrane vesicles
Assay type: biochemical

- Ki: 8.9 ± 1.2 µM
SMILES: O=S(=O)(O)c1cc(N=C=S)ccc1/C=C/c1ccc(N=C=S)cc1S(=O)(=O)O [DIDS]
